Test results reported in the NIST ThermoML archive (doi:10.1021/je900124n).
Values joined by “and” are separate entries in the source; they are usually repeats but may differ in a detail not shown here. Identical values can stand only once.

Conditions: Fluid (supercritical or subcritical phases), Buoyancy - hydrostatic balance with magnetic suspension - two sinkers

CCC [propane]
Conditions | mass density
370.82 K, 4316.6 kPa | 196.656 kg/m3 and 196.671 kg/m3
370.82 K, 4316.7 kPa | 196.709 kg/m3 and 196.642 kg/m3
370.82 K, 4316.8 kPa | 196.799 kg/m3
370.83 K, 4238.2 kPa | 146.891 kg/m3 and 146.895 kg/m3 and 146.889 kg/m3
370.83 K, 4238.3 kPa | 146.899 kg/m3 and 146.89 kg/m3 and 146.892 kg/m3
370.83 K, 4316.8 kPa | 196.721 kg/m3 and 196.767 kg/m3 and 196.684 kg/m3
370.83 K, 4323.4 kPa | 219.805 kg/m3 [middle of 5 runs]
370.83 K, 4323.5 kPa | 219.874 kg/m3 and 219.908 kg/m3 and 219.975 kg/m3
370.83 K, 4330.9 kPa | 243.656 kg/m3 [middle of 4 runs]
370.83 K, 4331 kPa | 243.626 kg/m3 and 243.674 kg/m3 and 243.648 kg/m3
370.83 K, 4331.1 kPa | 243.671 kg/m3
370.85 K, 4240.8 kPa | 147.314 kg/m3
370.85 K, 4240.9 kPa | 147.324 kg/m3
370.85 K, 4306.4 kPa | 177.862 kg/m3
370.85 K, 4306.5 kPa | 177.914 kg/m3 and 177.843 kg/m3
370.85 K, 4306.6 kPa | 177.931 kg/m3 and 177.874 kg/m3
370.85 K, 4322.8 kPa | 208.978 kg/m3 and 208.99 kg/m3
370.85 K, 4322.9 kPa | 208.933 kg/m3 and 209.016 kg/m3
370.85 K, 4323 kPa | 209.074 kg/m3
370.85 K, 4327.4 kPa | 226.65 kg/m3
370.85 K, 4327.5 kPa | 226.647 kg/m3
370.85 K, 4353.6 kPa | 265.164 kg/m3
370.85 K, 4353.7 kPa | 265.36 kg/m3 and 265.182 kg/m3 and 265.138 kg/m3
370.85 K, 4353.8 kPa | 265.176 kg/m3 [middle of 4 runs]
370.86 K, 4327.6 kPa | 226.701 kg/m3 and 226.673 kg/m3
371.82 K, 4387.3 kPa | 196.837 kg/m3 and 196.769 kg/m3
371.82 K, 4416.6 kPa | 243.565 kg/m3
371.83 K, 4293.5 kPa | 147.926 kg/m3
371.83 K, 4293.6 kPa | 147.93 kg/m3 and 147.934 kg/m3 and 147.924 kg/m3
371.83 K, 4293.7 kPa | 147.947 kg/m3 and 147.93 kg/m3
371.83 K, 4387.3 kPa | 196.784 kg/m3 and 196.769 kg/m3
371.83 K, 4387.4 kPa | 196.809 kg/m3 [middle of 4 runs]
371.83 K, 4400.8 kPa | 219.56 kg/m3
371.83 K, 4400.9 kPa | 219.574 kg/m3 and 219.677 kg/m3 and 219.642 kg/m3
371.83 K, 4401 kPa | 219.681 kg/m3 [middle of 4 runs]
371.83 K, 4416.6 kPa | 243.624 kg/m3
371.83 K, 4416.7 kPa | 243.578 kg/m3 and 243.586 kg/m3
371.83 K, 4416.8 kPa | 243.575 kg/m3 and 243.616 kg/m3 and 243.58 kg/m3
371.83 K, 4416.9 kPa | 243.605 kg/m3
371.85 K, 4295.8 kPa | 148.252 kg/m3
371.85 K, 4295.9 kPa | 148.276 kg/m3 and 148.252 kg/m3
371.85 K, 4370.3 kPa | 177.981 kg/m3
371.85 K, 4370.4 kPa | 178.031 kg/m3 and 177.991 kg/m3 and 178.027 kg/m3
371.85 K, 4370.5 kPa | 178.012 kg/m3
371.85 K, 4397.1 kPa | 208.855 kg/m3 and 208.907 kg/m3
371.85 K, 4397.2 kPa | 208.865 kg/m3 and 208.929 kg/m3 and 208.907 kg/m3
371.85 K, 4407.1 kPa | 226.926 kg/m3
371.85 K, 4407.2 kPa | 226.521 kg/m3 and 226.511 kg/m3
371.85 K, 4450.2 kPa | 265.14 kg/m3
371.85 K, 4450.3 kPa | 265.143 kg/m3
371.85 K, 4450.4 kPa | 265.125 kg/m3 and 265.134 kg/m3 and 265.131 kg/m3
371.86 K, 4407.3 kPa | 226.504 kg/m3 and 226.483 kg/m3
372 K, 4517.4 kPa | 281.197 kg/m3
372 K, 4517.6 kPa | 281.196 kg/m3 and 281.206 kg/m3 and 281.197 kg/m3
372 K, 4517.7 kPa | 281.2 kg/m3 [middle of 4 runs]
375 K, 3980.2 kPa | 100.464 kg/m3 and 100.463 kg/m3
375 K, 3980.3 kPa | 100.468 kg/m3 and 100.463 kg/m3
375 K, 4455 kPa | 148.081 kg/m3 [middle of 5 runs]
375 K, 4455.1 kPa | 148.084 kg/m3 and 148.085 kg/m3 and 148.081 kg/m3
375 K, 4456.1 kPa | 148.366 kg/m3 and 148.364 kg/m3 and 148.371 kg/m3
375 K, 4456.2 kPa | 148.361 kg/m3
375 K, 4568.9 kPa | 178.196 kg/m3 [middle of 4 runs]
375 K, 4569 kPa | 178.185 kg/m3
375 K, 4609.7 kPa | 197.026 kg/m3 and 197.015 kg/m3
375 K, 4609.8 kPa | 197.023 kg/m3 [middle of 5 runs]
375 K, 4630.9 kPa | 208.979 kg/m3
375 K, 4631 kPa | 208.963 kg/m3 and 208.962 kg/m3 and 208.991 kg/m3
375 K, 4631.1 kPa | 208.972 kg/m3
375 K, 4648.5 kPa | 219.668 kg/m3
375 K, 4648.6 kPa | 219.65 kg/m3 [middle of 6 runs]
375 K, 4648.7 kPa | 219.656 kg/m3
375 K, 4660.8 kPa | 226.495 kg/m3
375 K, 4660.9 kPa | 226.503 kg/m3 and 226.483 kg/m3
375 K, 4661 kPa | 226.54 kg/m3
375 K, 4694.5 kPa | 243.594 kg/m3 and 243.602 kg/m3 and 243.583 kg/m3
375 K, 4694.6 kPa | 243.603 kg/m3 [middle of 4 runs]
375 K, 4761.6 kPa | 265.09 kg/m3
375 K, 4761.7 kPa | 265.094 kg/m3 and 265.087 kg/m3
375 K, 4761.8 kPa | 265.087 kg/m3
375 K, 4761.9 kPa | 265.101 kg/m3
375 K, 4846.9 kPa | 281.14 kg/m3 [middle of 4 runs]
375 K, 4847.1 kPa | 281.138 kg/m3 and 281.143 kg/m3
375 K, 5843.8 kPa | 337.161 kg/m3
375 K, 5843.9 kPa | 337.161 kg/m3
375 K, 5844 kPa | 337.161 kg/m3 and 337.159 kg/m3
375 K, 5844.1 kPa | 337.162 kg/m3
375 K, 5844.2 kPa | 337.16 kg/m3 and 337.158 kg/m3
375.01 K, 4661 kPa | 226.502 kg/m3
375.01 K, 4847.1 kPa | 281.141 kg/m3 and 281.139 kg/m3
380 K, 320.18 kPa | 4.576 kg/m3
380 K, 320.19 kPa | 4.576 kg/m3
380 K, 569.88 kPa | 8.3091 kg/m3 and 8.3093 kg/m3
380 K, 569.89 kPa | 8.3092 kg/m3 and 8.3093 kg/m3
380 K, 954.79 kPa | 14.3809 kg/m3
380 K, 954.8 kPa | 14.3809 kg/m3
380 K, 954.81 kPa | 14.3809 kg/m3
380 K, 1441 kPa | 22.71 kg/m3
380 K, 1441.3 kPa | 22.7154 kg/m3
380 K, 1442 kPa | 22.7271 kg/m3
380 K, 1442.3 kPa | 22.733 kg/m3
380 K, 1442.6 kPa | 22.7383 kg/m3
380 K, 2208.6 kPa | 37.8037 kg/m3 [middle of 4 runs]
380 K, 2208.8 kPa | 37.8087 kg/m3
380 K, 3020.8 kPa | 57.7697 kg/m3 and 57.7694 kg/m3
380 K, 3020.9 kPa | 57.7728 kg/m3
380 K, 3021 kPa | 57.7733 kg/m3
380 K, 3021.1 kPa | 57.7794 kg/m3
380 K, 3513.2 kPa | 73.3301 kg/m3
380 K, 3513.4 kPa | 73.3336 kg/m3
380 K, 3513.5 kPa | 73.3364 kg/m3
380 K, 3513.6 kPa | 73.3391 kg/m3 and 73.3404 kg/m3 and 73.3402 kg/m3
380 K, 4131.9 kPa | 100.514 kg/m3
380 K, 4132 kPa | 100.514 kg/m3
380 K, 4132.1 kPa | 100.516 kg/m3 and 100.515 kg/m3
380 K, 4703.8 kPa | 148.075 kg/m3
